Source: US20250213701A1, “MEDICAMENT FOR TREATING HUMAN TUMOR BASED ON ERF3A-TARGETING PROTEOLYSIS MECHANISM” (SUZHOU DEGEN BIO-MEDICAL CO., LTD., priority 2022, published 2025)

Assays:
Assay type in all cases: cell-based
[1] = target: T1, SRD5A3 (Homo sapiens, UniProt Q9H8P0); test: Western blot assay in HepG2 cells: SRD5A3; details: different concentrations at 24 h (FIG. 10)
T1 construct: The downregulation of SRD5A3 and GSPT1 (eRF3a) proteins in PC-3 and HepG2 cells by C59; endogenous in cells; host or cells: 22Rv1, PC-3, HepG2
T1 sequence (Q9H8P0 1-318): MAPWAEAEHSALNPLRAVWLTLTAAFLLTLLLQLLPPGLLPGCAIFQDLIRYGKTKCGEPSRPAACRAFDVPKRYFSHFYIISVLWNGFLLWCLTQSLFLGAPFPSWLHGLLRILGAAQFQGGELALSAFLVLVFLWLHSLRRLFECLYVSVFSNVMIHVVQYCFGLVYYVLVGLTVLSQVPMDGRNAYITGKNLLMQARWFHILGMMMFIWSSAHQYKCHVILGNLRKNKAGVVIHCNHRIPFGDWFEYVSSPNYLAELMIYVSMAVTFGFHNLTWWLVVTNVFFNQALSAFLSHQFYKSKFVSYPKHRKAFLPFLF
Source text: Example 84: Western Blot Assay of Compound C59 in 22Rv1, PC-3, and HepG2 Cells
(1) Materials: 22Rv1, PC-3, and HepG2 cell, anti-SRD5A1 antibody (ab167606), anti-SRD5A2 antibody (ab124877), anti-SRD5A3 antibody (PA5-107029), anti-androgen receptor (AR) antibody (CST, No. 5153), anti-GSPT1 antibody (Abcam, ab234433), anti-GADPH antibody (CST, No. 5174), anti-c-Myc antibody (CST, No. 8583), anti-α-tublin antibody (CST, No. 2125), anti-rabbit IgG, HRP-linked antibody (CST, No. 7074), electrophoresis device and membrane transfer device (LIUYI, BEIJING; DYCZ-24DN)
Cell seeding: 22Rv1 (Cell Bank of the Chinese Academy of Sciences, TCHu100), PC-3 (Cell Bank of the Chinese Academy of Sciences, SCSP-532) and HepG2 cells (Cell Bank of the Chinese Academy of Sciences, TCHu72) were subcultured and trypsinized to prepare 6×10^5 cells/mL suspensions, seeded on 6-well plates (3 mL/well), and cultured overnight in a cell incubator at 5% CO2 and 37° C. […]
Protein quantification: The protein was quantified using a BCA protein quantification kit. […]
Western immunoblot assay (or Western blot, WB): SDS-PAGE gel at a proper concentration was prepared according to the molecular weight of the target protein: for example, the concentration of the separation gel was 8% and the concentration of the stacking gel was 5%. The loading volume was adjusted according to the protein quantification results. […]

[2] = tested on: HGC-27 cells; test: Anti-proliferative toxicity of C63 in tumor cell lines (CCK8): HGC-27; details: Homo sapiens, 72 h, 3 days, read-out: Inhibition rate
Experimental: (§1) Example 83: Detection of Anti-Proliferative Toxicity of C63 in Some Tumor Cell Lines
HGC-27 cells (purchased from the Cell Bank of the Chinese Academy of Sciences, Cat. No. TCHu22) were subcultured in a culture medium (RPMI-1640 medium+1% penicillin-streptomycin dual-antibiotic solution++20% fetal bovine serum) in an incubator at 5% carbon dioxide and 37° C.
HGC-27 cells were seeded at 3000 cells/well (90 μL) on a 96-well plate and cultured for 24 h.
(§2) 10 mM compound stock solutions were prepared in DMSO.
(§3) The compound stock solution was diluted with DMSO to give DMSO solutions 1-9 at concentrations of 0 μM, 2500 μM, 500 μM, 100 μM, 20 μM, 4 μM, 0.8 μM, 0.16 μM, and 0.032 μM.
(§4) 2 μL of each of solutions 1-9 was added to 98 μL of the medium to give mixed solutions 11-19 of the compound and the medium.
(§5) 10 μL of each of solutions 11-19 was added to the above cell seed solution to give a total volume of 100 μL (90 μL+10 μL).
(§6) The concentrations of the compound in the wells were 0 μM, 5.0 μM, 1.0 μM, 0.2 μM, 0.04 μM, 0.008 μM, 0.0016 μM, 0.00032 μM, and 0.000064 μM. All concentrations were in triplicate.
(§7) After the above-treated cells were cultured for 3 days, 10 μL of the CCK8 solution (DOJINDO, Cat. No. PF725) was added to each well. The plate was incubated in an incubator at 37° C. for 1-4 h and then detected on a microplate reader for the reading at 450 nm.

[3] = tested on: Ca Ski cells; test: Anti-proliferative toxicity of C63 in tumor cell lines (CCK8): Ca Ski; details: Homo sapiens, 72 h, 3 days, read-out: Inhibition rate
Experimental: as §1
Ca Ski cells (purchased from the Cell Bank of the Chinese Academy of Sciences, Cat. No. TCHu137) were subcultured in a culture medium (RPMI-1640 medium+1% penicillin-streptomycin dual-antibiotic solution+10% fetal bovine serum) in an incubator at 5% carbon dioxide and 37° C.
Ca Ski cells were seeded at 5000 cells/well (90 μL) on a 96-well plate and cultured for 24 h.
as §2, §3, §4, §5, §6, §7

Row | SMILES | downregulation of SRD5A3 protein (Western blot) [1] | inhibition at 64 pM ([2]; 0.000064 μM) [%] | inhibition at 0.00032 µM ([2]; 0.000320 μM) [%] | inhibition at 0.0016 µM ([2]; 0.001600 μM) [%] | inhibition at 0.008 µM ([2]; 0.008000 μM) [%] | inhibition at 0.04 µM ([2]; 0.040000 μM) [%] | inhibition at 0.2 µM ([2]; 0.200000 μM) [%] | inhibition at 1 µM ([2]; 1.000000 μM) [%] | inhibition at 5 µM ([2]; 5.000000 μM) [%] | inhibition at 64 pM ([3]; 0.000064 μM) [%] | inhibition at 0.00032 µM ([3]; 0.000320 μM) [%] | inhibition at 0.0016 µM ([3]; 0.001600 μM) [%] | inhibition at 0.008 µM ([3]; 0.008000 μM) [%] | inhibition at 0.04 µM ([3]; 0.040000 μM) [%] | inhibition at 0.2 µM ([3]; 0.200000 μM) [%] | inhibition at 1 µM ([3]; 1.000000 μM) [%] | inhibition at 5 µM ([3]; 5.000000 μM) [%]
1 | C[C@]12C=CC(=O)N[C@@H]1CC[C@@H]1[C@@H]2CC[C@]2(C)[C@@H](C(=O)Nc3cccc(N[C@@H]4CCC[C@@H](Nc5cccc6c5C(=O)N(C5CCC(=O)NC5=O)C6=O)C4)c3)CC[C@@H]12 (stereo partly drawn) [C59, N-(3-(N—(N-(4-(2-(3-(2,6-dioxopiperidine))-isoindole-1,3-dione))-1R,3R-cyclohexanediamine))phenyl)-3-oxo-4-aza-5α-androst-1-ene-17β-carboxamide] | downregulation |  |  |  |  |  |  |  |  |  |  |  |  |  |  |  | 
2 | C[C@]12C=CC(=O)N[C@@H]1CC[C@@H]1[C@@H]2CC[C@]2(C)[C@@H](C(=O)Nc3cccc(N[C@@H]4CCC[C@@H](Nc5cccc6c5C(=O)N([C@H]5CCC(=O)NC5=O)C6=O)C4)c3)CC[C@@H]12 [C63, N-(3-(N—(N-(4-(2-(3S-(2,6-dioxopiperidine))-isoindole-1,3-dione))-1R,3R-cyclohexanediamine))phenyl)-3-oxo-4-aza-5α-androst-1-ene-17β-carboxamide] |  | 7.74 | 9.52 | 80 | 94.2 | 97.1 | 98.3 | 98.2 | 97.7 | 2.03 | 6.27 | 42.9 | 65.4 | 73.9 | 78 | 77.8 | 78.1
